The nature of series [1]: Toxicity determined in mice, oral and intraperitoneal administration. The format is in vivo. How it is done: The toxicity was determined in mice for various ways of administration.
The subject of the next series is GABA transaminase. Put plainly: Action on GABA transaminase, concluded from second administration of bicuculline. The conditions noted are these: concluded from lack of inhibition of convulsions at second bicuculline administration 5 hours later. The series is classed as in vivo.
For series [2], the system named is convulsions induced by bicuculline. As to the kind of experiment: Convulsions induced by injection of bicuculline. The series is classed as in vivo.
Series [3] concerns arrhythmias in mice subjected to chloroform anesthesia. Put plainly: Arrhythmias in mice subjected to chloroform anesthesia. The format is in vivo. The conditions noted are these: intraperitoneally, 100 mg/kg.
For series [4], the system named is edema of a rat's foot induced by carrageenan. Put plainly: Edema of a rat's foot induced by carrageenan. The following applies: orally, 200 mg/kg. The series is classed as in vivo.
Series [5] concerns right auricle of a guinea pig. Put plainly: Chronotropic effect induced by histamine on the spontaneously beating right auricle of a guinea pig. The conditions noted are these: Cavia porcellus, 100 microg/ml, 5 microg/ml of histamine.

The results in this text go back to patent US4499090A, “N-(5-aminomethyl-2-oxazolin-2-yl)-N'-phenylureas, compositions and use” (Societe Cortial, S.A., priority 1982, dated 1985).

For orientation: inhibition means the percentage by which the read-out fell short of the control. The low end stands for little suppression, the high end for strong suppression.

Molecules are shown by their SMILES.

For the molecule `O=C(NC1=NCC(CN2CCc3ccccc3C2)O1)Nc1ccccc1` (centres unmarked) [Example 3], the mortality result in series [1] (intraperitoneally at 200 mg/kg) and in series [1] (orally at 300 mg/kg) was “did not cause any mortality” in each case. For the same molecule, the “action on GABA transaminase” value with GABA transaminase is recorded as “does not act on the GABA transaminase”. In addition, the type of activity result in series [2] (concluded from the bicuculline convulsion tests) was “direct gabergic type”. Besides, in series [2] (intraperitoneally, 80 mg/kg, 0.5 mg/kg of bicuculline 30 minutes later), the “inhibition of convulsions induced by bicuculline” value was “caused an inhibition of convulsions”. Besides, the “inhibition of convulsions induced by a second administration of bicuculline” value in series [2] (intraperitoneally, 80 mg/kg, second administration of bicuculline 5 hours later) is recorded as “no longer inhibits convulsions”.
On to `CCN(CC)CC1CN=C(NC(=O)Nc2ccccc2)O1` (centres unmarked) [Example 1, N-(5-diethylaminomethyl-2-oxazolin-2-yl)-N'-phenylurea], for which the mortality result in series [1] (intraperitoneally at 200 mg/kg) and in series [1] (orally at 300 mg/kg) was “did not cause any mortality” in each case. Moreover, in series [3], the appearance of arrhythmias entry is given as “prevented the appearance of arrhythmias”. For the same molecule, in series [4], the “inhibition of edema of a rat's foot induced by carrageenan” value is recorded as 51%. The same molecule came in with an inhibition at 100 µg/mL in series [5] greater than 50%.
Turning to `O=C(NC1=NCC(CN2CCCCC2)O1)Nc1ccccc1` (centres unmarked) [Example 2, N-Phenyl-N'-(5-piperidinomethyl-2-oxazoline-2-yl)urea], the mortality result in series [1] (intraperitoneally at 200 mg/kg) and in series [1] (orally at 300 mg/kg) was “did not cause any mortality” throughout. In addition, in series [3], the appearance of arrhythmias entry is given as “prevented the appearance of arrhythmias”.
